Experimental data from PubChem BioAssay AID200 (DTP/NCI, 2004).
“And” between values parts separate entries of the source, which are not always exact repeats. Identical values can stand only once. Toxic doses and inconclusive results are not listed. The calls were made as follows: active = survival T/C of 150% or more; inactive = T/C below 125% in these data.

System: B6C3F1 mice, B16 melanoma ip, median survival T/C
Assay: NCI In Vivo Anticancer Drug Screen. Data for tumor model B16 Melanoma (intraperitoneal) in B6C3F1 mice
Conditions: endpoint: median survival time, higher = longer survival
Summary of the method: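 Transplantable tumor in mice; treated vs vehicle control groups; survival or tumor size measured; value = T/C ratio.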

[1] = dose: 50.0 mg/kg/injection, schedule: Q01DX009 (ip), vehicle: saline
[2] = dose: 100.0 mg/kg/injection, schedule: Q01DX009 (ip), vehicle: saline
[3] = dose: 200.0 mg/kg/injection, schedule: Q01DX009 (ip), vehicle: saline
[4] = dose: 25.0 mg/kg/injection, schedule: Q01DX009 (ip), vehicle: Klucel (hydroxypropylcellulose) (HPC)
[5] = dose: 50.0 mg/kg/injection, schedule: Q01DX009 (ip), vehicle: Klucel (hydroxypropylcellulose) (HPC)
[6] = dose: 100.0 mg/kg/injection, schedule: Q01DX009 (ip), vehicle: Klucel (hydroxypropylcellulose) (HPC)
[7] = dose: 6.25 mg/kg/injection, schedule: Q01DX009 (ip), vehicle: Klucel (hydroxypropylcellulose) (HPC)
[8] = dose: 12.5 mg/kg/injection, schedule: Q01DX009 (ip), vehicle: Klucel (hydroxypropylcellulose) (HPC)
[9] = dose: 25.0 mg/kg/injection, schedule: Q01DX009 (ip), vehicle: saline with Tween-80
[10] = dose: 50.0 mg/kg/injection, schedule: Q01DX009 (ip), vehicle: saline with Tween-80
[11] = dose: 100.0 mg/kg/injection, schedule: Q01DX009 (ip), vehicle: saline with Tween-80
[12] = dose: 12.5 mg/kg/injection, schedule: Q01DX009 (ip), vehicle: saline with Tween-80
[13] = dose: 200.0 mg/kg/injection, schedule: Q01DX009 (ip), vehicle: saline with Tween-80
[14] = dose: 400.0 mg/kg/injection, schedule: Q01DX009 (ip), vehicle: saline with Tween-80
[15] = dose: 400.0 mg/kg/injection, schedule: Q01DX009 (ip), vehicle: saline

Measured: T/C

CC(C)(C)OC(=O)NC(CC(=O)O)C(=O)O (stereo unspecified)
inactive: [1] 102 % of control | [2] 90 % of control | [3] 96 % of control

O=C1C=C(Nc2ccccc2)c2ccccc2C1=O
inactive: [4] 104 % of control | [5] 96 % of control | [6] 91 % of control

COC1=C(NC(C)=O)C(=O)c2nc(-c3nc(C(=O)O)c(C)c(-c4ccc(OC)c(OC)c4O)c3N)ccc2C1=O
inactive: [7] 103 % of control | [8] 95 % of control | [4] 86 % of control | [5] 97 % of control

O=C(C/C(=N\C(=S)Nc1cc(C(F)(F)F)ccc1Cl)NO)N1CCCC1
inactive: [9] 123 % of control | [10] 116 % of control | [11] 94 % of control

O=C1CN(CN2CCOCC2)C(=O)CN1CN1CCOCC1
inactive: [12] 88 % of control | [9] 94 % of control | [10] 93 % of control | [11] 102 % of control | [13] 100 % of control

O=C(O)COc1ccc(-c2ccc(Br)cc2)cc1
inactive: [9] 95 % of control | [10] 98 % of control | [11] 87 % of control | [13] 96 % of control | [14] 94 % of control

CCCCc1ccc2nc(NC(=O)OC)[nH]c2c1
active: [9] 154 % of control | [10] 165 % of control | [11] 165 % of control

C[n+]1cccc(NC(=O)c2ccc(NC(=O)C34CCC(C(=O)Nc5ccc(C(=O)Nc6ccc[n+](C)c6)cc5)(CC3)CC4)cc2)c1
inactive: dose: 2.5 mg/kg/injection, schedule: Q01DX009 (ip), vehicle: saline with Tween-80 114 % of control | dose: 5.0 mg/kg/injection, schedule: Q01DX009 (ip), vehicle: saline with Tween-80 111 % of control and 117 % of control and 118 % of control | dose: 10.0 mg/kg/injection, schedule: Q01DX009 (ip), vehicle: saline with Tween-80 119 % of control | dose: 20.0 mg/kg/injection, schedule: Q01DX009 (ip), vehicle: saline with Tween-80 121 % of control and 99 % of control

COc1cc(O)c2c(O)c3c(c4c2c1[C@]1(C4)C(C)=CCCC1(C)C)[C@H](O)[C@@]1(O)CC(=O)C(C(N)=O)=C(O)[C@@]1(O)C3=O
inactive: dose: 1.56 mg/kg/injection, schedule: Q01DX009 (ip), vehicle: saline with Tween-80 90 % of control | dose: 3.12 mg/kg/injection, schedule: Q01DX009 (ip), vehicle: saline with Tween-80 106 % of control | dose: 6.25 mg/kg/injection, schedule: Q01DX009 (ip), vehicle: saline with Tween-80 117 % of control

OC1CCCC2CCC[N-]C12.OC1CCCC2CCC[N-]C12.[Mn+2] (stereo unspecified)
inactive: [4] 109 % of control | [5] 102 % of control

Cc1cc(NC(=S)SCc2ccc3c(c2)OCO3)ccc1Cl
inactive: [5] 103 % of control | [6] 112 % of control

COC1/C=C/O[C@@]2(C)Oc3c(C)c(O)c4c(O)c(cc(O)c4c3C2=O)NC(=O)/C(C)=C\C=C\[C@H](C)C(O)[C@@H](C)[C@@H](O)[C@@H](C)[C@H](OC(C)=O)[C@@H]1C (stereo partly specified)
inactive: [12] 95 % of control | [9] 97 % of control | [10] 93 % of control | [11] 95 % of control

O=Cc1c(CO)cc(O)c(O)c1O
inactive: dose: 3.13 mg/kg/injection, schedule: Q01DX009 (ip), vehicle: Klucel (hydroxypropylcellulose) (HPC) 115 % of control | [7] 104 % of control | [8] 89 % of control | [4] 88 % of control

C=COC(=O)N(C)C
inactive: [11] 99 % of control | [13] 97 % of control

C1CNCCN1
inactive: dose: 25.0 mg/kg/injection, schedule: Q01DX009 (ip), vehicle: suspension in saline 103 % of control | dose: 50.0 mg/kg/injection, schedule: Q01DX009 (ip), vehicle: suspension in saline 111 % of control | dose: 100.0 mg/kg/injection, schedule: Q01DX009 (ip), vehicle: suspension in saline 109 % of control | dose: 200.0 mg/kg/injection, schedule: Q01DX009 (ip), vehicle: suspension in saline 111 % of control

CCC12C[N+]3([O-])CCc4c([nH]c5ccccc45)C(C(=O)OC)(c4cc5c(cc4OC)N(C)C4C(O)(C(=O)OC)C(OC(C)=O)C6(CC)C=CCN7CCC54C76)CC(C3)C1O2 (stereo unspecified)
inactive: dose: 0.62 mg/kg/injection, schedule: Q01DX009 (ip), vehicle: water 112 % of control | dose: 1.25 mg/kg/injection, schedule: Q01DX009 (ip), vehicle: water 104 % of control and 107 % of control
108 % of control and 261 % of control: dose: 5.0 mg/kg/injection, schedule: Q01DX009 (ip), vehicle: water
active: dose: 2.5 mg/kg/injection, schedule: Q01DX009 (ip), vehicle: saline 185 % of control | dose: 5.0 mg/kg/injection, schedule: Q01DX009 (ip), vehicle: saline 246 % of control | dose: 10.0 mg/kg/injection, schedule: Q01DX009 (ip), vehicle: saline 373 % of control
121 % of control and 309 % of control: dose: 10.0 mg/kg/injection, schedule: Q01DX009 (ip), vehicle: water

CC1CCC2C(C)C(=O)OC2C2(C)C(=O)C=CC12 (stereo unspecified)
inactive: dose: 14.0 mg/kg/injection, schedule: Q01DX009 (ip), vehicle: Klucel (hydroxypropylcellulose) (HPC) 95 % of control | dose: 22.0 mg/kg/injection, schedule: Q01DX009 (ip), vehicle: Klucel (hydroxypropylcellulose) (HPC) 95 % of control | dose: 35.0 mg/kg/injection, schedule: Q01DX009 (ip), vehicle: Klucel (hydroxypropylcellulose) (HPC) 97 % of control | [5] 97 % of control

O=c1oc2c(O)c(O)cc3c(=O)oc4c(O)c(O)cc1c4c23
inactive: [7] 116 % of control | [8] 117 % of control | [12] 123 % of control | [4] 114 % of control and 120 % of control | [9] 113 % of control | [5] 114 % of control and 87 % of control | [10] 114 % of control | [6] 108 % of control and 88 % of control | [11] 105 % of control | dose: 200.0 mg/kg/injection, schedule: Q01DX009 (ip), vehicle: Klucel (hydroxypropylcellulose) (HPC) 116 % of control | [13] 115 % of control | [14] 119 % of control

CONc1ccn(C2OC(CO)C(O)C2O)c(=O)n1 (stereo unspecified)
inactive: dose: 12.5 mg/kg/injection, schedule: Q01DX009 (ip), vehicle: saline 92 % of control and 98 % of control | dose: 25.0 mg/kg/injection, schedule: Q01DX009 (ip), vehicle: saline 101 % of control and 102 % of control | [1] 103 % of control and 104 % of control | [2] 91 % of control and 106 % of control | [3] 113 % of control and 91 % of control | [15] 89 % of control and 94 % of control

Nc1ccc2ccc(O)cc2c1
inactive: [9] 104 % of control | [10] 97 % of control | [11] 105 % of control

CC(C)(C)OC(=O)NC(CCC(=O)O)C(=O)O (stereo unspecified)
inactive: [2] 107 % of control | [3] 107 % of control | [15] 94 % of control

Nc1ncnc2c1c1c(=O)[nH]c(=O)[nH]c1n2C1OC(CO)C(O)C1O (stereo unspecified)
active: dose: 200.0 mg/kg/injection, schedule: Q01DX009 (ip), vehicle: distilled water + Tween-80 172 % of control
inactive: dose: 25.0 mg/kg/injection, schedule: Q01DX009 (ip), vehicle: distilled water + Tween-80 123 % of control

CC1Oc2cc3c(-c4c(O)cc(O)c5c(O)c6c(cc45)OC(C)C(C)C6=O)c(O)cc(O)c3c(O)c2C(=O)C1C (stereo unspecified)
inactive: dose: 0.31 mg/kg/injection, schedule: Q01DX009 (ip), vehicle: suspension in saline 117 % of control | dose: 0.62 mg/kg/injection, schedule: Q01DX009 (ip), vehicle: suspension in saline 101 % of control | dose: 1.25 mg/kg/injection, schedule: Q01DX009 (ip), vehicle: suspension in saline 109 % of control | dose: 2.5 mg/kg/injection, schedule: Q01DX009 (ip), vehicle: suspension in saline 116 % of control

COc1cccc2c1C(=O)c1c(O)c3c(c(O)c1C2=O)C[C@@](O)(c1csc(N)n1)C[C@@H]3OC1CC(N)C(O)C(C)O1 (stereo partly specified)
active: dose: 25.0 mg/kg/injection, schedule: Q01DX001 (ip), vehicle: water 154 % of control

CC[C@@]1(O)C(=O)OCc2c1cc1n(c2=O)Cc2cc3ccccc3nc2-1
active: dose: 1.5 mg/kg/injection, schedule: Q01DX009 (ip), vehicle: saline with Tween-80 174 % of control | dose: 3.0 mg/kg/injection, schedule: Q01DX009 (ip), vehicle: saline with Tween-80 189 % of control
inactive: dose: 0.1 mg/kg/injection, schedule: Q01DX009 (ip), vehicle: other 108 % of control
